Measurements taken from paper PMC4696656, “Insights into the Mechanism of Action of Bactericidal Lipophosphonoxins” (PLoS ONE, 2015).

Columns and labels:
Caco-2 monolayers = test: Transepithelial transport in Caco-2 monolayers; format: in vitro ADME; settings: 3 h incubation
mice [1] = test: MTD test in mouse model, administration intraperitoneally; format: in vivo, Mice ICR
Experimental: (§1) The MTD (maximum tolerated dose) in mouse model was carried out by MediTox s.r.o. on a commercial basis. The complete protocol for the MTD testing can be found in S3 Supporting Information.
(§2) For the administration the appropriate amount of the Test item (TI) was dissolved in water (aqua for injection, B. Braun, Germany) and administered to mice either orally (in the volume of 0.5 mL/25 g of body weight) or intraperitoneally (in the volume of 1.0 mL/25 g of body weight).
(§3) S3 and S4 Tables summarize the test system parameters, the number of animals used, and the doses tested. Briefly, for each dose, 3 males are 3 females were used.
(§4) All animals from the study were observed daily for clinical signs, morbidity or mortality during acclimation, 0.5, 4, 6, 24 and 48 hours after administration. Onset, duration and severity of any signs were recorded, and used as criteria for early euthanasia decisions. The clinical observations included: changes in skin, fur, eyes, occurrence of secretion and excretion; autonomic activity (e.g. lacrimation, piloerection); changes in gait and posture; changes in unprovoked behavior, presence of stereotypes or bizarre behavior; response to handling. Ether was used for anesthesia in compliance with the Standard Operating Procedures (SOPs) of MediTox, the European convention for the protection of vertebrate animals used for experimental and other scientific purposes (ETS 123), the Czech Collection of laws No. 246/1992, inclusive of the amendments, on the Protection of animals against cruelty, and Public Notice of the Ministry of Agriculture of the Czech Republic, Collection of laws No. 419/2012 as amended, on keeping and exploitation of experimental animals. MediTox s.r.o. is a holder of the accreditation Certificate for user’s issued by Central Committee for Animal Protection of the Czech Republic.
(§5) All the animals that died during study or survived to their scheduled euthanasia (cervical dislocation under ether anesthesia) 8th day after the administration received a complete post-mortem examination and microscopic examination of organs showing evidence of gross pathology. The cause of death of animals that died during the study before the scheduled euthanasia was mainly venostasis of kidneys and liver.
(§6) S3 Supporting in formation. MTD test in mouse mo d el – a detailed […]
(§7) The MTD (maximum tolerated dose) in mouse model was carried out by MediTox s.r.o. on the […]
(§8) The stud y w as carried ou t accordin g to:
(§9) ICH M3(R2) – The International Conference on Harmonization of Technical Requirements for Registration of Pharm aceuticals for Human Use. Relevant SOPs (Standard operating procedures ) […]
(§10) Facility Management and Animal Husbandry
(§11) Animal car e was in comp liance with th e SOPs of MediTox s.r.o., the Euro pean convention fo r the protection of vertebrate animals used for experimental and other scientific purposes (ETS 123), the Czech Collection of laws No. 246/1992, inclusive of the amendments, on the Protection of animals against cruelty, and Public Notice of the Ministry of Agriculture of the Czech Republic, Collection of laws No. 419/2012 as amended, on keeping and exploitation of experimental animals. MediTox s.r.o. is a holder of the accreditation Certificate for user’s issued by Central Committee for Animal Protection of the Czech Republic.
(§12) Animal Welfare Act Compliance
(§13) The stud y was prepared for this t ype of ex perimen t and approved b y th e Ins titutional Animal Care and Use Committee ( IAC UC) and the Committee for Animal Protection of the Ministry of Health (PP 09/2013) of the Czech Republic. Procedures used in this report were designed to conform to accepted practices and to minimize or avoid causing pain, distress, or discomfort to the animals.
(§14) The number of animals selected for use in this study was considered to be the minimum number necessar y to meet scienti fic and regulator y guideli nes for this t ype of stud y.
(§15) Preparation of the Test item application formulations […]

[2] = Stability at different pH (LC-MS); format: physicochemical; settings: pH 0.18, 5.00 and 8.80; 50 μM and 500 μM; room temperature and 37°C; 24 hours
Experimental: Stability experiments were carried out at two concentrations and three pH values. Concentrations were 500 μmol/l (50 μl of 10 mM stock solution were dissolved in buffers of specific pH to a final volume of 1 ml) and 50 μmol/l (10 μl of stock solution were dissolved in buffers of specific pH to a final volume of 2 ml); pH: 0.18 (0.5 M HCl), 5 (0.1M NH4Ac adjusted with acetic acid), and 8.8 (0.1M NH4Ac adjusted with NaOH). The experiments were conducted at room temperature and 37°C, respectively. Samples were injected onto HPLC machine at different time points to assess the levels of decomposition. Time points: 0.5; 1; 3.5; 24 hrs. HPLC analytical parameters: Method: 0–100% B in 5 min, 100% C in 15 min, hold to 20 min. A = 25 mM NH4Ac, B = 25 mM NH4Ac in 50% MeCN, C = MeCN. Column: PFP, 100 x 4.6 mm, 3 um. Injection: 10 μl for 500 μM. Injection: 50 μl for 50 μM. Detection: PDA 210–400 nm; MS TIC 200–800 m/z.

mice [3] = test: MTD test in mouse model, administration per os; format: in vivo, Mice ICR; settings: for gross pathology findings: males and females
Experimental: as §1, §2, §3, §4, §5, §6, §7, §8, §9, §10, §11, §12, §13, §14, §15

[4] = D2-IP 500 mg/kg i.p., females, 3 animals
[5] = D2-IP 500 mg/kg i.p., males, 3 animals
[6] = D3-IP 250 mg/kg i.p., females, 3 animals
[7] = D3-IP 250 mg/kg i.p., males, 3 animals
[8] = D4-IP 80 mg/kg i.p., females, 3 animals
[9] = D4-IP 80 mg/kg i.p., males, 3 animals
[10] = D5-IP 50 mg/kg i.p., females, 3 animals
[11] = D5-IP 50 mg/kg i.p., males, 3 animals

SMILES: CCCCCCCCCCCCCCCCOP(=O)(CCN1C[C@@H](O)[C@H](O)C1)OC[C@H]1O[C@@H](n2ccc(=O)[nH]c2=O)[C@H](O)[C@@H]1O (stereo partly drawn) [DR5026]
- compound in the Caco-2 cell lysate (Caco-2 monolayers): No compound was detected
- compound at the basolateral (acceptor) side (Caco-2 monolayers; apical to basolateral): No compound was detected
- gross pathology findings (mice [1]; D1-IP, 5 mg/kg i.p., males and females): NO FINDINGS
- abdominal cavity red liquid, number of animals with finding (mice [1]; [4]): 2
- kidneys venostasis, number of animals with finding (mice [1]; [4]): 2
- liver venostasis, number of animals with finding (mice [1]; [4]): 2
- lungs focal hemorrhage, number of animals with finding (mice [1]; [4]): 1
- abdominal cavity red liquid, number of animals with finding (mice [1]; [5]): 2
- kidneys venostasis, number of animals with finding (mice [1]; [5]): 2
- liver venostasis, number of animals with finding (mice [1]; [5]): 2
- abdominal cavity red liquid, number of animals with finding (mice [1]; [6]): 3
- kidneys venostasis, number of animals with finding (mice [1]; [6]): 3
- liver venostasis, number of animals with finding (mice [1]; [6]): 3
- thoracic cavity red liquid, number of animals with finding (mice [1]; [6]): 1
- abdominal cavity red liquid, number of animals with finding (mice [1]; [7]): 3
- kidneys venostasis, number of animals with finding (mice [1]; [7]): 3
- liver venostasis, number of animals with finding (mice [1]; [7]): 3
- lungs venostasis, number of animals with finding (mice [1]; [7]): 1
- thoracic cavity red liquid, number of animals with finding (mice [1]; [7]): 1
- liver enlarged, number of animals with finding (mice [1]; [8]): 3
- liver rounded edges, number of animals with finding (mice [1]; [8]): 3
- abdominal cavity red liquid, number of animals with finding (mice [1]; [9]): 1
- kidneys venostasis, number of animals with finding (mice [1]; [9]): 1
- liver enlarged, number of animals with finding (mice [1]; [9]): 2
- liver rounded edges, number of animals with finding (mice [1]; [9]): 2
- liver venostasis, number of animals with finding (mice [1]; [9]): 1
- liver enlarged, number of animals with finding (mice [1]; [10]): 3
- liver rounded edges, number of animals with finding (mice [1]; [10]): 3
- spleen peritoneal adhesions, number of animals with finding (mice [1]; [10]): 1
- liver enlarged, number of animals with finding (mice [1]; [11]): 3
- liver peritoneal adhesions, number of animals with finding (mice [1]; [11]): 2
- liver rounded edges, number of animals with finding (mice [1]; [11]): 3
- spleen peritoneal adhesions, number of animals with finding (mice [1]; [11]): 2
- safe limit (maximal tolerated dose) (mice [1]; administered peritoneally): 50 mg/kg
- clinical signs (mice [1]; i.p. 80 mg/kg): all the monitored animals were slightly stolid 5 min after the administration
- severe clinical signs / moribund animals (mice [1]; i.p. 80 mg/kg, 24-26 hours): In one male a disturbance of locomotion was observed
- clinical signs (mice [1]; i.p. 250 mg/kg and 500 mg/kg): exacerbated the symptoms
- mortality (mice [1]; i.p. 500 mg/kg, several hours after administration, 3 males + 3 females): death of 2 males and 2 females
- signs of toxicity (mice [1]; i.p. 5 and 50 mg/kg): did not cause any signs of toxicity
- stability (decomposition by LC-MS) [2]: no detectable decomposition
- gross pathology findings (mice [3]; D1-PO, 5 mg/kg p.o.): NO FINDINGS
- gross pathology findings (mice [3]; D2-PO, 500 mg/kg p.o.): NO FINDINGS
- gross pathology findings (mice [3]; D3-PO, 1000 mg/kg p.o.): NO FINDINGS
- gross pathology findings (mice [3]; D4-PO, 1500 mg/kg p.o.): NO FINDINGS
- gross pathology findings (mice [3]; D5-PO, 2000 mg/kg p.o.): NO FINDINGS
- signs of toxicity (mice [3]; per os 5, 500, 1000, 1500 and 2000 mg/kg, single dose): did not cause any signs of toxicity
- gross pathology changes (mice [3]; per os 5-2000 mg/kg): no gross pathology changes were detected
- highest peroral dose without any signs of toxicity (maximal tolerated dose) (mice [3]; peroral, single dose): 2000 mg/kg
